{"source": "patent US20100029619A1", "about": "“FUSED HETEROCYCLIC COMPOUND” (TAKEDA PHARMACEUTICAL COMPANY LIMTED, priority 2006, published 2010)", "data": [{"values": [{"smiles": "Cn1cc(-c2ccc3nc(NC(=O)c4ccc(C(C)(C)C)nc4)cn3n2)cn1", "note": "[Example 176, 6-tert-butyl-N-[6-(1-methyl-1H-pyrazol-4-yl)imidazo[1,2-b]pyridazin-2-yl]nicotinamide]", "melting point": "251 to 252 °C"}, {"smiles": "O=C(Nc1cn2cc(-n3ccnc3)ccc2n1)c1ccc(-c2ncc[nH]2)cc1", "note": "[Example 88, 4-(1H-imidazol-2-yl)-N-[6-(1H-imidazol-1-yl)imidazo[1,2-a]pyridin-2-yl]benzamide]", "melting point": "276 to 279 °C (dec.)"}, {"smiles": "CC(C)(CN)c1ccc(C(=O)Nc2cn3cc(Cl)ccc3n2)cc1", "note": "[Example 94, 4-(2-amino-1,1-dimethylethyl)-N-(6-chloroimidazo[1,2-a]pyridin-2-yl)benzamide]", "melting point": "245 to 247 °C"}, {"smiles": "CC(C)(C)c1ccc(C(=O)Nc2cn3cc(-c4ccc[nH]4)ccc3n2)cc1", "note": "[Example 62]", "melting point": "279 to 280 °C"}, {"smiles": "Cc1c(NC(=O)c2ccc(C(C)(C)C)cc2)nc2ccc(-n3ccnc3)nn12", "note": "[Example 56, 4-tert-butyl-N-[6-(1H-imidazol-1-yl)-3-methylimidazo[1,2-b]pyridazin-2-yl]benzamide]", "melting point": "302 to 303 °C"}, {"smiles": "CCN(c1ccc(C(=O)Nc2cn3cc(Cl)ccc3n2)cc1)S(C)(=O)=O", "note": "[Example 131, N-(6-chloroimidazo[1,2-a]pyridin-2-yl)-4-[ethyl(methylsulfonyl)amino]benzamide]", "melting point": "245 to 247 °C"}, {"smiles": "CC(C)(C)c1ccc(C(=O)Nc2cn3nc(NC4CCNCC4)ccc3n2)cc1", "note": "[Example 171, 4-tert-butyl-N-[6-(piperidin-4-ylamino)imidazo[1,2-b]pyridazin-2-yl]benzamide]", "melting point": "242 to 243 °C"}, {"smiles": "CC(C)(CO)c1ccc(C(=O)Nc2cn3cc(-c4ccsc4)ccc3n2)cc1", "note": "[Example 466, 4-(2-hydroxy-1,1-dimethylethyl)-N-[6-(3-thienyl)imidazo[1,2-a]pyridin-2-yl]benzamide]", "melting point": "250 to 252 °C"}, {"smiles": "CN(C)c1ccc2nc(NC(=O)c3ccc(C(C)(C)C)cc3)cn2n1.Cl", "melting point": "259 to 260 °C"}, {"smiles": "CC(C)(C)c1ccc(C(=O)Nc2cn3c(ccc4ccccc43)n2)cc1", "note": "[Example 50, 4-tert-butyl-N-(imidazo[1,2-a]quinolin-3-yl)benzamide]", "melting point": "204 to 205 °C"}, {"smiles": "Cc1cccc2nc(NC(=O)c3ccc(C4(C(=O)O)CCC4)cc3)cn12", "note": "[Example 188, 1-{4-[(5-methylimidazo[1,2-a]pyridin-2-yl)carbamoyl]phenyl}cyclobutanecarboxylic acid]", "melting point": "272 °C"}, {"smiles": "CC(C)(CCC#N)c1ccc(C(=O)Nc2cn3cc(C(F)(F)F)ccc3n2)cc1", "note": "[Example 445, 4-(3-cyano-1,1-dimethylpropyl)-N-[6-(trifluoromethyl)imidazo[1,2-a]pyridin-2-yl]benzamide]", "melting point": "233 to 234 °C"}, {"smiles": "COC(=O)C(C)(C)c1ccc(C(=O)Nc2cn3cc(Cl)ccc3n2)cc1", "note": "[Example 30, methyl 2-{4-[(6-chloroimidazo[1,2-a]pyridin-2-yl)carbamoyl]phenyl}-2-methylpropanoate]", "melting point": "245 to 246 °C"}, {"smiles": "CC(C)(CNC(=O)C(O)CO)c1ccc(C(=O)Nc2cn3cc(Cl)ccc3n2)cc1", "note": "(centres unmarked) [Example 450, N-(6-chloroimidazo[1,2-a]pyridin-2-yl)-4-[2-(glyceroylamino)-1,1-dimethylethyl]benzamide]", "melting point": "228 to 229 °C"}, {"smiles": "CC(C)(CCC#N)c1ccc(C(=O)Nc2cn3cc(-n4ccnc4)ccc3n2)cc1", "note": "[Example 45, 4-(3-cyano-1,1-dimethylpropyl)-N-[6-(1H-imidazol-1-yl)imidazo[1,2-a]pyridin-2-yl]benzamide]", "melting point": "233 to 234 °C"}, {"smiles": "CS(=O)(=O)Nc1ccc(C(=O)Nc2cn3cc(Cl)ccc3n2)cc1", "note": "[Example 110, N-(6-chloroimidazo[1,2-a]pyridin-2-yl)-4-[(methylsulfonyl)amino]benzamide]", "melting point": "293 to 295 °C"}, {"smiles": "CCC(=O)NC(C)(C)c1ccc(C(=O)Nc2cn3cc(Cl)ccc3n2)cc1", "note": "[Example 129, N-(6-chloroimidazo[1,2-a]pyridin-2-yl)-4-[1-methyl-1-(propionylamino)ethyl]benzamide]", "melting point": "249 to 252 °C"}, {"smiles": "CC(C)(C)c1ccc(C(=O)Nc2cn3cc(-c4ncc[nH]4)ccc3n2)cc1", "note": "[Example 73, 4-tert-butyl-N-[6-(1H-imidazol-2-yl)imidazo[1,2-a]pyridin-2-yl]benzamide]", "melting point": "300 to 301 °C"}, {"smiles": "Cn1cc(-c2ccc3nc(NC(=O)c4ccc(C(C)(C)C)nc4)cn3c2)cn1", "note": "[Example 105, 6-tert-butyl-N-[6-(1-methyl-1H-pyrazol-4-yl)imidazo[1,2-a]pyridin-2-yl]nicotinamide]", "melting point": "228 to 230 °C"}, {"smiles": "CCC(=O)NCC(C)(C)c1ccc(C(=O)Nc2cn3cc(Cl)ccc3n2)cc1", "note": "[Example 126, N-(6-chloroimidazo[1,2-a]pyridin-2-yl)-4-[1,1-dimethyl-2-(propionylamino)ethyl]benzamide]", "melting point": "225 to 227 °C"}, {"smiles": "CC(C)(C)c1ccc(C(=O)Nc2cn3cc(-n4ccnc4)ccc3n2)cn1", "note": "[Example 86, 6-tert-butyl-N-[6-(1H-imidazol-1-yl)imidazo[1,2-a]pyridin-2-yl]nicotinamide]", "melting point": "242 to 245 °C"}, {"smiles": "CC(C)(C)c1ccc(C(=O)Nc2cn3cc(-c4cnco4)ccc3n2)cn1", "note": "[Example 100, 6-tert-butyl-N-[6-(1,3-oxazol-5-yl)imidazo[1,2-a]pyridin-2-yl]nicotinamide]", "melting point": "251 to 253 °C"}, {"smiles": "CC(C)(C)c1ccc(C(=O)Nc2cn3cc(-c4cnco4)ccc3n2)cc1", "note": "[Example 74, 4-tert-butyl-N-[6-(1,3-oxazol-5-yl)imidazo[1,2-a]pyridazin-2-yl]benzamide]", "melting point": "265 to 266 °C"}, {"smiles": "CC(C)(CNC(=O)c1ncc[nH]1)c1ccc(C(=O)Nc2cn3cc(C(F)(F)F)ccc3n2)cc1", "note": "[Example 457, N-[2-methyl-2-(4-{[6-(trifluoromethyl)imidazo[1,2-a]pyridin-2-yl]carbamoyl}phenyl)propyl]-1H-imidazole-2-carboxamide]", "melting point": "292 to 293 °C"}, {"smiles": "Cc1cccc2nc(NC(=O)c3ccc(C(C)(C)C)cc3)cn12.Cl", "melting point": "204 to 205 °C"}, {"smiles": "CC(C)(CCc1noc(=O)[nH]1)c1ccc(C(=O)Nc2cn3cc(-n4ccnc4)ccc3n2)cc1", "note": "[Example 437, 4-[1,1-dimethyl-3-(5-oxo-4,5-dihydro-1,2,4-oxadiazol-3-yl)propyl]-N-[6-(1H-imidazol-1-yl)imidazo[1,2-a]pyridin-2-yl]benzamide]", "melting point": "283 to 284 °C"}, {"smiles": "Cc1ccc2nc(NC(=O)c3ccc(C(C)(C)CCC#N)cc3)cn2c1", "note": "[Example 438, 4-(3-cyano-1,1-dimethylpropyl)-N-(6-methylimidazo[1,2-a]pyridin-2-yl)benzamide]", "melting point": "194 to 195 °C"}, {"smiles": "CC(C)(C)c1ccc(C(=O)Nc2cn3cc(-n4cccc4)ccc3n2)cc1", "note": "[Example 64, 4-tert-butyl-N-[6-(1H-pyrrol-1-yl)-imidazo[1,2-a]pyridin-2-yl]benzamide]", "melting point": "274 to 275 °C"}, {"smiles": "CN(C)Cc1ccc2nc(NC(=O)c3ccc(C(C)(C)C)cc3)cn2c1", "note": "[Example 80, 4-tert-butyl-N-[6-(dimethylaminomethyl)imidazo[1,2-a]pyridin-2-yl]benzamide]", "melting point": "236 to 237 °C"}, {"smiles": "CC(C)(C)c1ccc(C(=O)Nc2cn3cc(-c4cnc[nH]4)ccc3n2)cc1", "note": "[Example 76, 4-tert-butyl-N-[6-(1H-imidazol-5-yl)imidazo[1,2-a]pyridin-2-yl]benzamide]", "melting point": "297 to 298 °C"}, {"smiles": "CC(C)(CO)c1ccc(C(=O)Nc2cn3cc(-c4ccoc4)ccc3n2)cc1", "note": "[Example 465, N-[6-(3-furyl)imidazo[1,2-a]pyridin-2-yl]-4-(2-hydroxy-1,1-dimethylethyl)benzamide]", "melting point": "246 to 248 °C"}, {"smiles": "Cc1cn(-c2ccc3nc(NC(=O)c4ccc(C(C)(C)C)cc4)cn3n2)c(C)n1", "note": "[Example 143, 4-tert-butyl-N-[6-(2,4-dimethyl-1H-imidazol-1-yl)imidazo[1,2-b]pyridazin-2-yl]benzamide]", "melting point": "254 to 255 °C"}, {"smiles": "CC(C)(C)c1ccc(C(=O)Nc2cn3c4c(ccc3n2)OCC4)cc1", "note": "[Example 14, 4-tert-butyl-N-(1,2-dihydrofuro[2,3-e]imidazo[1,2-a]pyridin-7-yl)benzamide]", "melting point": "266 to 268 °C"}, {"smiles": "CC(C)(C)c1ccc(C(=O)Nc2cn3cc(C#N)ccc3n2)cc1", "note": "[Example 78, 4-tert-butyl-N-[6-cyanoimidazo[1,2-a]pyridin-2-yl]benzamide]", "melting point": "300 to 301 °C"}, {"smiles": "CC(C)(C(=O)O)c1ccc(C(=O)Nc2cn3c4c(ccc3n2)OCC4)cc1", "note": "[Example 16, 2-[4-(1,2-dihydrofuro[2,3-e]imidazo[1,2-a]pyridin-7-ylcarbamoyl)phenyl]-2-methylpropanoic acid]", "melting point": "293 to 295 °C"}, {"smiles": "CC(C)(C)c1ccc(C(=O)Nc2cn3nc(N)ccc3n2)cc1", "note": "[Example 148, N-(6-aminoimidazo[1,2-b]pyridazin-2-yl)-4-tert-butylbenzamide]", "melting point": "267 to 268 °C"}, {"smiles": "CC(C)(C(=O)NO)c1ccc(C(=O)Nc2cn3cc(Cl)ccc3n2)cc1", "note": "[Example 33, N-(6-chloroimidazo[1,2-a]pyridin-2-yl)-4-[2-(hydroxyamino)-1,1-dimethyl-2-oxoethyl]benzamide]", "melting point": "212 to 213 °C"}, {"smiles": "CC(C)(C(=O)O)c1ccc(C(=O)Nc2cn3cc(-c4ccsc4)ccc3n2)cc1", "note": "[Example 25, 2-methyl-2-(4-{[6-(3-thienyl)imidazo[1,2-a]pyridin-2-yl]carbamoyl}phenyl)propanoic acid]", "melting point": "304 to 306 °C"}, {"smiles": "CC(C)(CCC#N)c1ccc(C(=O)Nc2cn3cc(Cl)ccc3n2)cc1", "note": "[Example 32, N-(6-chloroimidazo[1,2-a]pyridin-2-yl)-4-(3-cyano-1,1-dimethylpropyl)benzamide]", "melting point": "198 to 199 °C"}, {"smiles": "CC(C)(C)c1ccc(C(=O)Nc2cn3nc(-n4cnc(Br)c4)ccc3n2)cc1", "note": "[Example 147, N-[6-(4-bromo-1H-imidazol-1-yl)imidazo[1,2-b]pyridazin-2-yl]-4-tert-butylbenzamide]", "melting point": "306 to 307 °C"}, {"smiles": "CC(C)(C(=O)O)c1ccc(C(=O)Nc2cn3cc(Cl)ccc3n2)cc1", "note": "[Example 31, 2-{4-[(6-chloroimidazo[1,2-a]pyridin-2-yl)carbamoyl]phenyl}-2-methylpropanoic acid]", "melting point": "311 to 313 °C"}]}]}
